These results are taken from patent publication US20220184020A1, “Polyphenols as Modulators of Platelet Function” (Northeastern University, priority 2019, published 2022).

Structures are written as SMILES.

In one experiment the test system is MCF7 cell line. The settings on record: MCF7 after treatment with RA; versus all other genes; cited from earlier work.
Experiment [1] relates to platelets. Briefly: Platelet alpha granule secretion (P-selectin surface expression). Format: cell-based, human. The settings on record: in response to U46619; RA pre-treatment 1 hour. On the procedure: To validate the predictive power of the developed framework, direct experimental evidence of the predicted mechanistic role of Rosmarinic acid (RA) in VD was sought. […] Therefore, whether RA influenced platelet activation in vitro was evaluated. As platelets can be stimulated through different activation pathways, RA effects can, in principle, occur in any of them. To test these different possibilities, platelets were pretreated with RA and then activated with: 1) glycoprotein VI by collagen or collagen-related peptide (Collagen/CRPXL); 2) protease-activated receptors-1,4 by thrombin receptor activator peptide-6 (TRAP-6); 3) prostanoid thromboxane receptor by the thromboxane A2 analogue (U46619); and 4) P2Y1/12 receptor stimulation by adenosine diphosphate (ADP). When the network distance between each stimulant receptor and the RA-VD-platelet module (FIG. 11A) was compared, it was observed that the receptors for Collagen/CRPXL, TRAP-6, and U46619 are closer than the random expectation, while the receptor for ADP is more distant (FIG. 11B). It is expected that platelets would be most affected by RA when treated with stimulants whose receptors are most proximal to the RA-VD-platelet module, i.e. Collagen/CRPXL, TRAP-6, and U46619. […] Percent-positive cells were determined by gating on fluorescence intensity compared to unstimulated samples.

Experiment [2] deals with platelets. Briefly: Platelet dense granule release (Chrono-Lume). The settings on record: induced by CRPXL, TRAP-6 and U46619; RA pre-treatment 1 hour. The experiment is classed as cell-based, human. On the procedure:
To validate the predictive power of the developed framework, direct experimental evidence of the predicted mechanistic role of Rosmarinic acid (RA) in VD was sought. […] Therefore, whether RA influenced platelet activation in vitro was evaluated. As platelets can be stimulated through different activation pathways, RA effects can, in principle, occur in any of them. To test these different possibilities, platelets were pretreated with RA and then activated with: 1) glycoprotein VI by collagen or collagen-related peptide (Collagen/CRPXL); 2) protease-activated receptors-1,4 by thrombin receptor activator peptide-6 (TRAP-6); 3) prostanoid thromboxane receptor by the thromboxane A2 analogue (U46619); and 4) P2Y1/12 receptor stimulation by adenosine diphosphate (ADP). […] Platelet aggregation was measured by turbidimetric aggregometry. […] Platelet aggregation was monitored for 6 minutes at 37° C. with a stir speed of 1000 rpm and the maximum extend of aggregation recorded using AGGRO/LINK®8 software. In some cases, dense granule release was simultaneously recorded by supplementing samples with Chrono-Lume® (Chrono-Log®, 395) according to the manufacturer's instructions.

For experiment [3] the following is noted: rat models of ischemia/reperfusion injury; cited from earlier work.
For the next experiment, the system named is A549. As to conditions: A549 after treatment with RA; versus all other genes; cited from earlier work.

In the case of `O=C(/C=C/c1ccc(O)c(O)c1)O[C@H](Cc1ccc(O)c(O)c1)C(=O)O` [rosmarinic acid], the “perturbation scores for genes directly regulated by NFE2L2” value in the experiment with MCF7 cell line and in the experiment on A549 was “higher perturbation scores” throughout. Also, the alpha granule secretion result with platelets [1] is “dampened”. In the experiment on platelets [2], the dense granule secretion entry is given as “impairs”. In addition, the cardiac function entry in experiment [3] was “restore cardiac function”.
